According to patent US20170166870A1, “HUMAN HEPATIC 3D CO-CULTURE MODEL AND USES THEREOF” (Vrije Universiteit Brussel, priority 2014, published 2017):
Read-outs that look alike come from different tables or passages of the source.

Experiments:
[1] = tested on: 3D HepaRG/HSC co-culture; test: Single and repeated exposure, procollagen in culture supernatant; type: cell-based, human; conditions: repeated exposure, day 14; not observed at day 21
Text: (§1) FIG. 10: APAP and reference fibrotic compounds in single- and repeated-exposure of the 3D HepaRG/HSC co-culture. (A, C and E) cell viability, represented by % ATP and (B, D and F) gene expression. Error bars represent the standard deviation between independent assays (N=2) each point represents the pool of 5-6 spheroids. (D, F) Graph inserts represent the second repeat of the assay. Due to the variation between assays values could not be averaged together. Each point represents the pool of 5-6 spheroids. (G-H) Fibrosis read-outs at the protein level. (G) Procollagen measurements in culture supernatant upon single and repeated compound exposure (day 14 and 21) to 3D HepaRG/HSCs. (H) Procollagen measurements in culture supernatant upon 24 h incubation with the reference pro-fibrotic compounds of 3D HepaRG and 3D HSCmono-cultures.
(§2) Samples for pro-collagen measurement were five times concentrated using 10 kD Vivaspin 500 ultrafiltration columns (VWR, Radnor, Pa.), the resulting supernatant was analysed for the presence of Type I C-Peptide using the TAKARA (Chanteloup-en-Brie, France) kit.
(§3) Single and repeated exposure. For the single and repeated compound exposure cell spheroids (3D HepaRG/HSC, 3D HepaRG and 3D HSC) were exposed respectively on day 20 for 24 h or every second day from day 8 to day 21 in serum-free medium with no additional solvent. […]

[2] = tested on: 3D HepaRG/HSC co-culture; test: Single and repeated exposure, cell viability (% ATP), serum-free medium; type: cell-based, human
Protocol: Culture medium. Day 0 cells were resuspended in HepaRG thawing medium and from day 1 to 21 cells were kept in the HepaRG culture medium 0% DMSO, until day 8. For the repeated versus single compound exposure assays, on day 8, the HepaRG culture medium 0% DMSO was replaced by the Serum-free HepaRG maintenance medium described in Klein et. al. 2013 (HepaRG Induction/Toxicity medium, DMSO 0.5% (v/v), 2 μg/ml of epidermal growth factor and 10 μg/ml of hepatocyte growth factor) and kept in this medium until the end of culture.
(§4) Single and repeated exposure. For the single and repeated compound exposure cell spheroids (3D HepaRG/HSC, 3D HepaRG and 3D HSC) were exposed respectively on day 20 for 24 h or every second day from day 8 to day 21 in serum-free medium with no additional solvent. Cells were exposed to a range of 8 concentrations between 0.5 and 80 mM for APAP single-dose, 0.125 and 40 mM for APAP repeated-dose, 0.3 and 500 μM Allyl Alcohol (AA, Sigma-Aldrich), 1.9 and 1000 μM Methotrexate (MTX, Pfizer, NY, USA). For the recovery assay, on day 21, cells were washed using serum-free medium and kept for 3 extra days.
Cell viability assay was performed by measuring ATP production upon individual spheroid exposure to the different concentrations of the test compound. Cell spheroids were lysed individually for viability analysis using the Cell titer Glo kit (Promega) following the instructions of the manufacturer. Luminescence values were converted into percentage of ATP by comparison with controls and converted into dose-response curves using Prism 5 software.

[3] = tested on: 3D HepaRG/HSC co-culture; test: Single and repeated exposure, gene expression of HSC activation markers; type: cell-based, human; conditions: for HSC activation (up-regulation of activation markers, mRNA): serum-free medium
Protocol: as §4
For the cell culture samples, total RNA from 4-6 pooled spheroids was extracted from cells using the RNeasy Micro Kit (Qiagen, Venlo, Limburg, Netherlands). In the mouse assays, sorted HSC from different mice were lysed separately. Total RNA from tissue cultured cells was extracted using ReliaPrep RNA Cell Miniprep System (Promega).
Reverse-transcription using the Revert Aid Kit (ThermoFisher Scientific, Waltham, Massachusetts, USA) allowed conversion of RNA to cDNA. The RT reaction was performed at 25° C. for ten minutes followed by 30 minutes at 50° C. For quantitative real-time polymerase chain reaction (qPCR), GoTaq QPCR Master Mix with BRYTE green (Promega) was used, subjected to qPCR in a 7500 real time PCR system and analysed using System SDS software v2.0.5 (Applied Biosystems, Waltham, Mass., USA), using GAPDH for normalisation. Reliability of GAPDH as house-keeping gene was determined using Normfinder (Anderson et al., 2004). Fold change differences between samples were determined using the comparative Ct (δδCt) method. The expression level of different targets, relative to GAPDH (δCt) and relative to the calibrator, was given by 2^−δδCt.

[4] = tested on: 3D HepaRG and 3D HSC mono-cultures; test: Procollagen in culture supernatant of mono-cultures, reference pro-fibrotic compounds; type: cell-based, human; conditions: 3D mono-cultures, 24 h incubation
Text: as §1, §2, §3

[5] = tested on: 3D HepaRG/HSC co-culture; test: mRNA expression of HSC activation markers (qPCR) after APAP incubation; type: cell-based, human; conditions: 2.5 mM VPA, highest APAP concentrations
Protocol: (§5) APAP toxicity assay was performed in 3D HepaRG/co-culture as well as in 3D HepaRG monoculture. For 24 h, starting at day 20, cells were exposed to a range of APAP concentrations between 0.5 and 80 mM, keeping cells with the solvent (0.1% DMSO) as a control. For some experiments the culture medium was supplemented with 2.5 mM valproic acid (VPA sodium salt, Sigma-Aldrich) or with cytokine mixture (Raicevic et al.,2012)-interleukin (IL)-1β 25 ng/mL (Peprotech, Rocky Hill, N.J., USA), interferon (IFN)-γ 10^3 U/mL, tumor necrosis factor (TNF)-a 50 ng/mL, and IFN-α 3·10^3 U/mL (all from Prospec, Inc., East Brunswick, N.J., USA). For the recovery assay, at the end of APAP incubation, cells were washed using HepaRG culture 0% DMSO medium and kept in the same medium for 3 more days.
(§6) At the end of the incubation period, 5 spheroids per condition were pooled and lysed for RNA analyses, while the remaining spheroids per condition were lysed individually for viability analysis using the Cell titer Glo kit (Promega) for ATP measurements following the instructions of the manufacturer.
(§7) Total RNA was extracted from cells using the ReliaPrep RNA Cell Miniprep System (Promega, Madison, Wis.). Reverse-transcription using the Revert Aid Kit (ThermoFisher Scientific, St. Leon-Rot, Germany) allowed conversion of RNA to cDNA. The RT reaction was performed at 25° C. for ten minutes followed by 30 minutes at 50° C. For quantitative real-time polymerase chain reaction (qPCR), GoTaq QPCR Master Mix with BRYTE green (Promega, Madison, Wis.) was used, subjected to qPCR in a 7500 real time PCR system and analysed using System SDS software v2.0.5 (Applied Biosystems), using GAPDH for normalisation.

[6] = tested on: 3D HepaRG/HSC co-culture; test: APAP toxicity assay, cell viability by ATP (Cell titer Glo); type: cell-based, human; conditions: 2.5 mM VPA with APAP
Protocol: as §5, with “For 24 h, starting at day 20, cells were exposed to a range of APAP concentrations between 0.5 and 80 mM, keeping cells with the solvent (0.1% DMSO) as a control.” left out
as §6

[7] = tested on: 3D HepaRG/HSC co-culture; test: Exposure to pro-fibrotic factors, gene expression; type: cell-based, human
Protocol: From day 14 to day 21, 3D HepaRG/HSC spheroids were exposed to a solution of 100 ng/ml Lipopolysaccharide (LPS, Sigma) in culture medium, refreshed every second day up to day 21. Incubation with the Transforming growth factor-β1 (TGF-β1, R&D systems inc., Minneapolis, Minn., USA) was performed on day 19 for 48 h at a concentration of 10 ng/ml in HepaRG Induction/Toxicity medium. On day 21, cells were lysed and gene expression was analyzed upon RNA extraction.
as §7

[8] = tested on: 3D mouse hepatocyte/HSC co-culture (1Hep:2HSC); test: LPS stimulation of 3D mouse hepatic co-cultures, aSMA and Col1a1 expression; type: cell-based; conditions: 6 days LPS treatment, day 9; 1Hep:2HSC ratio
Text: FIG. 1: Screen of hepatocyte:hepatic stellate cell ratios in 3D mouse cultures. Figure represents the HSC activation markers (A, B) and Hepatocyte markers (C) measured in the different 3D mouse hepatic co-cultures. A—basal gene expression of fibrotic markers (aSMA and Col1a1) on day 9 of culture. B—Fold increase of aSMA and Col1a1 on day 9 upon 6 days treatment with the pro-fibrotic factor LPS. Horizontal line corresponds to non-treated 3D co-cultures for each case. C—over-time gene expression of albumin (a) and CYP3A11 (b) in the 3D co-cultures where better results were obtained previously (2hep:1HSC and 1Hep:2HSC). Comparisons between groups were analyzed for statistical significance by one-way ANOVA followed by Tukey. *** p<0.001; ** p<0.01; * p<0.05. […]
Total RNA was extracted from cells using the ReliaPrep RNA Cell Miniprep System (Promega, Madison, Wis.). […] For quantitative real-time polymerase chain reaction (qPCR), GoTaq QPCR Master Mix with BRYTE green (Promega, Madison, Wis.) was used, subjected to qPCR in a 7500 real time PCR system and analysed using System SDS software v2.0.5 (Applied Biosystems), using GAPDH for normalisation. Reliability of GAPDH as house-keeping gene was determined using Normfinder (Andersen, Jensen et al. 2004) to produce the ΔCT values. […]

Compound: CN(Cc1cnc2nc(N)nc(N)c2n1)c1ccc(C(=O)N[C@@H](CCC(=O)O)C(=O)O)cc1 [MTX, Methotrexate]
- collagen secretion [1]: high collagen secretion at day 14
- cell viability [2]: does not seem to affect cell viability at any of the tested concentrations
- percentage of ATP production ([2]; repeated exposure, lowest concentration): less than 20%
- recovery of HSC 3 days after compound washout ([3]; repeated exposure 63 μM): observed
- HSC activation (up-regulation of activation markers, mRNA) ([3]; repeated exposure): dramatically compensated
- HSC activation (up-regulation of activation markers, mRNA) ([3]; single exposure 24 h): no longer observed
- collagen secretion [4]: no collagen secretion is detected

Compound: CCCC(CCC)C(=O)O [VPA, valproic acid]
- effect on APAP-induced HSC markers [5]: lower up-regulation of the HSC markers
- effect on APAP toxicity (cell viability) [6]: did not affect APAP toxicity

Compound: C=CCO [Allyl Alcohol]
- collagen secretion [1]: high collagen secretion at day 14
- cell viability dose-response ([2]; repeated exposure): disappeared upon repeated exposure
- cell viability ([2]; single exposure): dose-response observed at the single exposure
- HSC activation (up-regulation of activation markers, mRNA) ([3]; repeated exposure): increase of the HSC activation markers at mRNA levels
- HSC activation (up-regulation of activation markers, mRNA) ([3]; single exposure 24 h): increase of the HSC activation markers at mRNA levels
- collagen secretion [4]: no collagen secretion is detected

Compound: TGFβ: Transforming growth factor-β1, known pro-fibrogenic factor
- activation markers (Acta2, Col1a1, Col3a1, Loxl2) expression ([7]; 10 ng/ml TGFβ, 48 h, day 21): acted on the activation markers

Compound: Lipopolysaccharide [LPS]
- activation response (aSMA, Col1a1) [8]: increased aSMA and Col1a1
- survivor markers (IL6, MMP1, CCL2, TNFα, IL1β) expression ([7]; 100 ng/ml LPS, 6 days): induced an up-regulation of the survivor markers
